Consider 52 compounds from PubChem BioAssay AID1996.

Each structure is given as a SMILES string. In brackets after ≈: the same amount, converted by molar mass.

Broadly, the kinetic solubility is the concentration staying in solution when a stock, usually in DMSO, is diluted into the medium.

The conditions of the data set: buffer; pH 7.4; 200.0 µM.
Regarding `O=C(NN1CCOCC1)c1cc(Cl)ccc1Cl`, the solubility (kinetic) is > 41.3 µg/mL. Then `O=C(COC(=O)c1ccccn1)NCCc1ccc(Cl)cc1`, with > 47.8 µg/mL.

As to `O=S(=O)(Nc1ccc2c(c1)OCO2)c1ccc(F)c(F)c1`, the solubility (kinetic) is > 47 µg/mL. Then `COc1ccccc1C1NC(=O)CCC1[N+](=O)[O-]` (configuration not stated), with > 37.5 µg/mL; and `Cc1ccc(N2C(=O)C3C4C=CC(CC4)C3C2=O)cc1Cl` (configuration not stated), with 1.4 µg/mL (≈ 4.64 µM). Then `O=C1OCC2=C1C(c1ccc(F)cc1)CC(=O)N2c1ccccc1` (configuration not stated), with > 48.5 µg/mL. Then `COc1ccc(CCN=C(N)NS(=O)(=O)c2ccc(C)c(C)c2)cc1OC`, with > 58.7 µg/mL. In the case of `Cc1cccc(C(=O)OCC(=O)N2CC(C)CC(C)C2)c1C` (configuration not stated), the kinetic solubility is > 45.5 µg/mL. With `Cc1cccc(C(=O)NC(=S)N(C)C2CCCCC2)c1` the figure was 35.9 µg/mL (≈ 124 µM); with `COc1ccc(-c2nc(=S)c3c(n2Cc2cccnc2)CC(C)(C)OC3)cc1`, > 59 µg/mL; with `CCOC(=O)C1CCCN(CC(O)COCc2ccccc2OC)C1` (configuration not stated), > 52.7 µg/mL.

With `O=C(NCc1ccco1)C(=S)N1CCCC1`, the kinetic solubility was > 35.7 µg/mL. Then `CCOC(=O)c1ccc(NCc2cccnc2)cc1`, with > 38.4 µg/mL; and `Cc1ccnc(NC(=O)c2ccc(Cl)c(NC(=O)c3ccccc3C)c2)c1`, with 1 µg/mL (≈ 2.63 µM). With `O=C(c1cc(O)c(O)c([N+](=O)[O-])c1)c1ccccc1F` the figure was > 41.6 µg/mL. Regarding `C[C@H](NC(N)=O)C(=O)Nc1ccc2c(c1)OCO2`, the solubility (kinetic) was determined as 32.9 µg/mL (≈ 131 µM).

The compound `O=C(Nc1ccncc1)Nc1ccccc1Cl` had a kinetic solubility of 33.5 µg/mL (≈ 135 µM). The solubility kinetic values of the last two compounds are within 1.5-fold of each other. In the case of `CNC(=O)c1cccc2cccc(Sc3ccccc3C(=O)O)c12`, the kinetic solubility turned out to be 44.2 µg/mL (≈ 131 µM). The solubility kinetic values of the last two compounds are within 1.5-fold of each other. With `O=C(CSc1cccc[n+]1[O-])c1ccc(Cl)s1` the figure was 38.3 µg/mL (≈ 134 µM); with `COc1ccc(-c2noc(CN(C(=O)c3ccoc3C)C(C)C)n2)cc1`, 38.7 µg/mL (≈ 109 µM); with `COc1ccccc1N/C(N)=N/c1nc(C)cc(C)n1`, 38.2 µg/mL (≈ 141 µM). In the case of `O=C(COC(=O)c1ccccc1Cl)NCc1ccco1`, the solubility (kinetic) is > 44.1 µg/mL. With `O=C1/C(=C/c2ccccc2Cl)N2CCC1CC2` the figure was 22.8 µg/mL (≈ 92 µM); with `CCN(CC)C(=O)c1ccc(O)c(OC)c1`, > 33.5 µg/mL.

Consider `COCc1cc(C)nc(NC2CC(C)(C)NC(C)(C)C2)c1C#N`, for which the solubility (kinetic) is > 47.5 µg/mL. Take `CCc1cccc(C)c1NC(=O)CSc1nc(C)c(C)o1`: the kinetic solubility was > 45.7 µg/mL. With `COc1ccc(OC)c(NC(=O)CN2c3cccc4cccc(c34)S2(=O)=O)c1` the figure was 2.2 µg/mL (≈ 5.52 µM). With `C=CCn1cc(Cl)cc(C(=O)Nc2ccccc2)c1=O` the figure was 6.9 µg/mL (≈ 23.9 µM). Then `Cc1onc(-c2ccccc2)c1CNC(=O)Nc1ccc(C(F)(F)F)cc1`, with 0.4 µg/mL (≈ 1.07 µM); and `Cc1ccc(NS(=O)(=O)c2ccc3c(c2)n(C)c(=O)n3C)c(C)c1`, with 17.9 µg/mL (≈ 51.8 µM); and `COc1cc(OC)cc(/C(N)=N/O)c1`, with 26.9 µg/mL (≈ 137 µM). `CC(=O)Nc1cccc(NC(=O)COc2ccccc2C)c1`: the kinetic solubility is > 44.8 µg/mL. With `CSc1nsc(SC)c1NC(=O)Nc1ccccc1C` the figure was 1 µg/mL (≈ 3.07 µM); with `O=C(COC(=O)c1cc2ccccc2cc1O)NCc1ccccc1`, 3 µg/mL (≈ 8.95 µM); with `COc1ccc(S(=O)(=O)N2CCCCC2)cc1NS(=O)(=O)c1ccccc1`, 4.3 µg/mL (≈ 10.5 µM).

In turn, `Cc1ccc(C(=O)OCC(=O)N2c3ccccc3NC(=O)C2(C)C)cc1S(=O)(=O)N1CCCCC1` yielded a solubility (kinetic) of 3.6 µg/mL (≈ 7.21 µM). This solubility kinetic and that of the compound before are within 1.5-fold of each other. With `CCC(C)[C@H](NC(=O)NC1CCCc2ccccc21)C(=O)OC` (some centres not stated) the figure was 22 µg/mL (≈ 69.1 µM); with `CN(C)C(=O)c1cc(C(=O)c2ccc(Cl)cc2Cl)c[nH]1`, 23.4 µg/mL (≈ 75.2 µM); with `CCNC(=S)NNC(=O)c1nn(C)c(C)c1Cl`, > 41.4 µg/mL.

Take `CC(=O)Nc1ccc(Oc2ccc(NC(C)=O)c(NC(C)=O)c2)cc1`: the kinetic solubility is > 51.2 µg/mL. With `CC(=O)Nc1ccc(C(=O)CN2C(=O)CSC2=O)cc1` the figure was > 43.8 µg/mL; with `CN(C)CCCNC(=O)c1cc(C(=O)c2ccc(F)cc2)c[nH]1`, > 47.6 µg/mL; with `Cc1onc(-c2ccccc2)c1C(=O)N1CCCC(C(F)(F)F)C1` (configuration not stated), 42.7 µg/mL (≈ 126 µM). With `Cc1[nH]c2ccc(C(=O)NCCN3CCOCC3)cc2c1C` the figure was > 45.2 µg/mL; with `N#CC1(NC(=O)COC(=O)c2nccnc2N)CCCCC1`, > 45.5 µg/mL. Compound `COCc1cc(C)nc(SCc2ccc(F)cc2)c1C#N` yielded a kinetic solubility of 1.1 µg/mL (≈ 3.64 µM). Then `CCC(C)(C)NC(=O)c1ccc2c(c1)OCCO2`, with > 37.4 µg/mL; and `CC(=O)c1cccc(NC(=S)NCc2ccco2)c1`, with 33.7 µg/mL (≈ 123 µM); and `Cc1cc2nc(NCCCO)n(CC(=O)c3cc(C(C)(C)C)c(O)c(C(C)(C)C)c3)c2cc1C`, with 0.5 µg/mL (≈ 1.07 µM). Then `Cc1ccc2c(CN(C)Cc3cccc(F)c3)cc(=O)oc2c1`, with 2 µg/mL (≈ 6.42 µM); and `NC(=O)c1ccc(NCCc2ccccc2)c([N+](=O)[O-])c1`, with 5 µg/mL (≈ 17.5 µM); and `S=C([S-])N1CCCC1.[NH4+]`, with 16.6 µg/mL.
